Legend:
C57B1/6J mice [1] = test: Water uptake of mice after a single subcutaneous injection of TCDD; type: in vivo; parameters: unit not given here
Procedure: (§1) Male C57B1/6J mice of 5 weeks old having the average weight of 18-22 g which had been bred in CRJ (Charles River in Japan) were purchased and used in this example as experimental animals. Those mice were acclimated under the constant breeding condition, i.e. the temperature of 24±1° C., the humidity of 60±10% and the light and darkness cycle of 12 hours, for one week and thereafter, utilized in the experiment.
The Experimental animals were supplied with Purina powdered feed (purchased from Hae Eun Trade) and supplied with water ad libitum. All the animals were weighed twice a week during experimentation.
(§2) 2,3,7,8-tetrachlorodibenzo-p-dioxin (TCDD) dissolved in toluene (purity of 95% or more as a result of gas chromatography analysis), manufactured by Chem. Services Inc. in USA, was volatilized with nitrogen to obtain powder. The obtained powder was dissolved in a mixed solvent containing acetone and corn oil with a volume ratio of 1:6. The resulting solution each containing 110, 27.5 and 6.9 μg/kg of TCDD was subcutaneously injected to mice at a volume of 5 ml per body weight. […] The mice were supplied with the feed from 10 days before (pre-administration) to 60 days after administration of TCDD (post-administration).
(§3) The results are expressed as Mean±Standard Deviation values. For statistical analysis of the body weight, feed and water uptake, biochemical findings, hematological findings and the weight of organ in an acute toxicity test, verification was performed by one way analysis of variance (ANOVA) in case of equal distribution. In case significance was recognized in ANOVA, the Student's t-test was performed in the levels of p<0.05 and p<0.01.

C57B1/6J mice [2] = test: Organ weights (liver, kidneys, testes, epididymides) of mice after a single subcutaneous injection of TCDD; type: in vivo
Procedure: as §1, §2
Upon completion of the experiment for 60 days, the experimental animals were fasted for 24 hours and anesthetized with ether. Then, they were abdominally incised and blood was gathered from abdominal vena cava. They were sacrificed by the release of blood. Liver, kidneys, testes and epididymides were extracted and all the extracted organs were weighed. Only the testes were separately kept and observed under optical and electron microscopes. For biochemical finding test, serum was separated from blood with a centrifuge and the separated serum was analyzed with an automated blood biochemical analyzer, Dimension (Dupont, USA). Blood was put to another blood gathering bottle and then, analyzed with an automated blood cell analyzer, Celldyn (Abbott, USA).
as §3
The organs, i.e. liver, kidneys, testes and epididymides, were weighed and the results are shown in the following.

[3] = TCDD 6.9 μg/kg + UDCA 0.125 wt %
[4] = TCDD 6.9 μg/kg + UDCA 0.25 wt %

For `C[C@H](CCC(=O)O)[C@H]1CC[C@H]2[C@@H]3[C@@H](O)C[C@@H]4C[C@H](O)CC[C@]4(C)[C@H]3CC[C@]12C` [UDCA, 3α, 7β-dihydroxy-5β-cholanoic acid], the water uptake (C57B1/6J mice [1]; TCDD 6.9 μg/kg + UDCA 0.125 wt %, 10 days) was 4.54 ± 0.71, the water uptake (C57B1/6J mice [1]; TCDD 6.9 μg/kg + UDCA 0.125 wt %, 20 days) was 3.75 ± 0.90 and the water uptake (C57B1/6J mice [1]; TCDD 6.9 μg/kg + UDCA 0.125 wt %, 30 days) was 4.00 ± 0.00. The water uptake (C57B1/6J mice [1]; TCDD 6.9 μg/kg + UDCA 0.125 wt %, 40 days) was 4.00 ± 0.00, the water uptake (C57B1/6J mice [1]; TCDD 6.9 μg/kg + UDCA 0.125 wt %, 50 days) was 4.06 ± 1.34 and the water uptake (C57B1/6J mice [1]; TCDD 6.9 μg/kg + UDCA 0.125 wt %, 60 days) was 4.64 ± 0.51. The water uptake (C57B1/6J mice [1]; TCDD 6.9 μg/kg + UDCA 0.25 wt %, 10 days) was 4.27 ± 1.16, the water uptake (C57B1/6J mice [1]; TCDD 6.9 μg/kg + UDCA 0.25 wt %, 20 days) was 3.83 ± 1.04 and the water uptake (C57B1/6J mice [1]; TCDD 6.9 μg/kg + UDCA 0.25 wt %, 30 days) was 4.00 ± 0.00. It also gave a water uptake (C57B1/6J mice [1]; TCDD 6.9 μg/kg + UDCA 0.25 wt %, 40 days) of 3.60 ± 0.57, a water uptake (C57B1/6J mice [1]; TCDD 6.9 μg/kg + UDCA 0.25 wt %, 50 days) of 4.28 ± 1.02 and a water uptake (C57B1/6J mice [1]; TCDD 6.9 μg/kg + UDCA 0.25 wt %, 60 days) of 4.69 ± 0.43. For the same molecule, the water uptake (C57B1/6J mice [1]; TCDD 6.9 μg/kg + UDCA 0.5 wt %, 10 days) was 4.12 ± 0.94, the water uptake (C57B1/6J mice [1]; TCDD 6.9 μg/kg + UDCA 0.5 wt %, 20 days) was 3.80 ± 0.70 and the water uptake (C57B1/6J mice [1]; TCDD 6.9 μg/kg + UDCA 0.5 wt %, 30 days) was 4.00 ± 0.63. The water uptake (C57B1/6J mice [1]; TCDD 6.9 μg/kg + UDCA 0.5 wt %, 40 days) was 3.78 ± 0.31, the water uptake (C57B1/6J mice [1]; TCDD 6.9 μg/kg + UDCA 0.5 wt %, 50 days) was 4.35 ± 1.08 and the water uptake (C57B1/6J mice [1]; TCDD 6.9 μg/kg + UDCA 0.5 wt %, 60 days) was 5.06 ± 0.70. For the same molecule, the water uptake (C57B1/6J mice [1]; TCDD 27.5 μg/kg + UDCA 0.125 wt %, 10 days) was 3.67 ± 1.10, the water uptake (C57B1/6J mice [1]; TCDD 27.5 μg/kg + UDCA 0.125 wt %, 20 days) was 3.92 ± 1.13 and the water uptake (C57B1/6J mice [1]; TCDD 27.5 μg/kg + UDCA 0.125 wt %, 30 days) was 4.30 ± 0.42. For the same molecule, the water uptake (C57B1/6J mice [1]; TCDD 27.5 μg/kg + UDCA 0.125 wt %, 40 days) was 4.20 ± 0.28, the water uptake (C57B1/6J mice [1]; TCDD 27.5 μg/kg + UDCA 0.125 wt %, 50 days) was 4.44 ± 0.79 and the water uptake (C57B1/6J mice [1]; TCDD 27.5 μg/kg + UDCA 0.125 wt %, 60 days) was 4.81 ± 0.26. The water uptake (C57B1/6J mice [1]; TCDD 27.5 μg/kg + UDCA 0.25 wt %, 10 days) was 4.04 ± 0.75, the water uptake (C57B1/6J mice [1]; TCDD 27.5 μg/kg + UDCA 0.25 wt %, 20 days) was 3.92 ± 0.63 and the water uptake (C57B1/6J mice [1]; TCDD 27.5 μg/kg + UDCA 0.25 wt %, 30 days) was 4.00 ± 0.00. For the same molecule, the water uptake (C57B1/6J mice [1]; TCDD 27.5 μg/kg + UDCA 0.25 wt %, 40 days) was 4.00 ± 0.00, the water uptake (C57B1/6J mice [1]; TCDD 27.5 μg/kg + UDCA 0.25 wt %, 50 days) was 4.44 ± 0.79 and the water uptake (C57B1/6J mice [1]; TCDD 27.5 μg/kg + UDCA 0.25 wt %, 60 days) was 4.81 ± 0.26. For the same molecule, the water uptake (C57B1/6J mice [1]; TCDD 27.5 μg/kg + UDCA 0.5 wt %, 10 days) was 3.91 ± 0.95, the water uptake (C57B1/6J mice [1]; TCDD 27.5 μg/kg + UDCA 0.5 wt %, 20 days) was 4.35 ± 0.98 and the water uptake (C57B1/6J mice [1]; TCDD 27.5 μg/kg + UDCA 0.5 wt %, 30 days) was 4.44 ± 0.00. For the same molecule, the water uptake (C57B1/6J mice [1]; TCDD 27.5 μg/kg + UDCA 0.5 wt %, 40 days) was 4.44 ± 0.00, the water uptake (C57B1/6J mice [1]; TCDD 27.5 μg/kg + UDCA 0.5 wt %, 50 days) was 4.41 ± 1.00 and the water uptake (C57B1/6J mice [1]; TCDD 27.5 μg/kg + UDCA 0.5 wt %, 60 days) was 4.88 ± 0.33. The water uptake (C57B1/6J mice [1]; TCDD 110.0 μg/kg + UDCA 0.125 wt %, 10 days) was 4.03 ± 1.21, the water uptake (C57B1/6J mice [1]; TCDD 110.0 μg/kg + UDCA 0.125 wt %, 20 days) was 4.07 ± 0.64 and the water uptake (C57B1/6J mice [1]; TCDD 110.0 μg/kg + UDCA 0.125 wt %, 30 days) was 3.33 ± 0.94. The water uptake (C57B1/6J mice [1]; TCDD 110.0 μg/kg + UDCA 0.25 wt %, 10 days) was 3.79 ± 1.06, the water uptake (C57B1/6J mice [1]; TCDD 110.0 μg/kg + UDCA 0.25 wt %, 20 days) was 3.83 ± 0.14 and the water uptake (C57B1/6J mice [1]; TCDD 110.0 μg/kg + UDCA 0.25 wt %, 30 days) was 4.67 ± 0.94. It also gave a water uptake (C57B1/6J mice [1]; TCDD 110.0 μg/kg + UDCA 0.25 wt %, 40 days) of 4.14 ± 0.20, a water uptake (C57B1/6J mice [1]; TCDD 110.0 μg/kg + UDCA 0.5 wt %, 10 days) of 3.75 ± 0.50 and a water uptake (C57B1/6J mice [1]; TCDD 110.0 μg/kg + UDCA 0.5 wt %, 20 days) of 3.42 ± 0.80. For the same molecule, the water uptake (C57B1/6J mice [1]; TCDD 110.0 μg/kg + UDCA 0.5 wt %, 30 days) was 4.20 ± 0.28, the water uptake (C57B1/6J mice [1]; TCDD 110.0 μg/kg + UDCA 0.5 wt %, 40 days) was 3.50 ± 0.71 and the water uptake (C57B1/6J mice [1]; TCDD 110.0 μg/kg + UDCA 0.5 wt %, 50 days) was 3.14 ± 0.59. The water uptake (C57B1/6J mice [1]; TCDD 110.0 μg/kg + UDCA 0.5 wt %, 60 days) was 3.32 ± 0.33, the “Left epididymis Relative weight” value (C57B1/6J mice [2]; [3]) was 0.121 ± 0.011 % and the “Left epididymis Weight” value (C57B1/6J mice [2]; [3]) was 0.029 ± 0.003 g. The “Left kidney Relative weight” value (C57B1/6J mice [2]; [3]) was 0.480 ± 0.050%, the “Left kidney Weight” value (C57B1/6J mice [2]; [3]) was 0.116 ± 0.014 g and the “Left testis Relative weight” value (C57B1/6J mice [2]; [3]) was 0.297 ± 0.020%. For the same molecule, the “Left testis Weight” value (C57B1/6J mice [2]; [3]) was 0.072 ± 0.006 g, the “Liver Relative weight” value (C57B1/6J mice [2]; [3]) was 4.069 ± 0.167% and the “Liver Weight” value (C57B1/6J mice [2]; [3]) was 0.980 ± 0.073 g. The “Right epididymis Relative weight” value (C57B1/6J mice [2]; [3]) was 0.121 ± 0.014%, the “Right epididymis Weight” value (C57B1/6J mice [2]; [3]) was 0.029 ± 0.003 g and the “Right kidney Relative weight” value (C57B1/6J mice [2]; [3]) was 0.511 ± 0.049%. For the same molecule, the “Right kidney Weight” value (C57B1/6J mice [2]; [3]) was 0.123 ± 0.008 g, the “Right testis Relative weight” value (C57B1/6J mice [2]; [3]) was 0.304 ± 0.020% and the “Right testis Weight” value (C57B1/6J mice [2]; [3]) was 0.073 ± 0.007 g. For the same molecule, the “Left epididymis Relative weight” value (C57B1/6J mice [2]; [4]) was 0.121 ± 0.011 %, the “Left epididymis Weight” value (C57B1/6J mice [2]; [4]) was 0.030 ± 0.003 g and the “Left kidney Relative weight” value (C57B1/6J mice [2]; [4]) was 0.484 ± 0.036%. For the same molecule, the “Left kidney Weight” value (C57B1/6J mice [2]; [4]) was 0.119 ± 0.009 g, the “Left testis Relative weight” value (C57B1/6J mice [2]; [4]) was 0.287 ± 0.036% and the “Left testis Weight” value (C57B1/6J mice [2]; [4]) was 0.071 ± 0.008 g. The “Liver Relative weight” value (C57B1/6J mice [2]; [4]) was 3.870 ± 0.289%, the “Liver Weight” value (C57B1/6J mice [2]; [4]) was 0.954 ± 0.057 g and the “Right epididymis Relative weight” value (C57B1/6J mice [2]; [4]) was 0.115 ± 0.009%. For the same molecule, the “Right epididymis Weight” value (C57B1/6J mice [2]; [4]) was 0.029 ± 0.002 g, the “Right kidney Relative weight” value (C57B1/6J mice [2]; [4]) was 0.500 ± 0.048% and the “Right kidney Weight” value (C57B1/6J mice [2]; [4]) was 0.123 ± 0.013 g. The “Right testis Relative weight” value (C57B1/6J mice [2]; [4]) was 0.290 ± 0.030%, the “Right testis Weight” value (C57B1/6J mice [2]; [4]) was 0.072 ± 0.008 g and the “Left epididymis Relative weight” value (C57B1/6J mice [2]; TCDD 6.9 μg/kg + UDCA 0.5 wt %) was 0.121 ± 0.010 %. For the same molecule, the “Left epididymis Weight” value (C57B1/6J mice [2]; TCDD 6.9 μg/kg + UDCA 0.5 wt %) was 0.029 ± 0.003 g and the “Left kidney Relative weight” value (C57B1/6J mice [2]; TCDD 6.9 μg/kg + UDCA 0.5 wt %) was 0.500 ± 0.025%.

Source: patent publication US20040029965A1, “Formulations for reducing or eliminating toxicity of enviromental hormones containing ursodeoxycholic acid” (priority 2000, published 2004)
